Measured values published in patent publication US7037644B1, “Means and methods for monitoring non-nucleoside reverse transcriptase inhibitor antiretroviral therapy and guiding therapeutic decisions in the treatment of HIV/AIDS” (ViroLogic, Inc., priority 1998, dated 2006).
Entries after “also recorded” stand apart in the source; their conditions may differ.

Experiments:
[1] = tested on: RTV-302, patient 97-302 (RT K103N, I135M, T200A, P225H); test: Phenotypic susceptibility assay (patient RTV); assay type: cell-based, HIV-1; details: patient virus RTV-302
Procedure: The resistance test vectors containing a functional luciferase gene cassette were constructed and host cells were transfected with the resistance test vector DNA. The resistant test vectors contained patient-derived reverse transcriptase and protease sequences that were either susceptible or resistant to the antiretroviral agents, such as nucleoside reverse transcriptase inhibitors, non-nucleoside reverse transcriptase inhibitors and protease inhibitors. […] The IC50 values were determined by plotting percent drug inhibition vs. log10 drug concentration.
Host cells were seeded in 10-cm-diameter dishes and were transfected several days after plating with resistance test vector plasmid DNA and the envelope expression vector. […] HIV capsid protein (p24) levels in the harvested cell culture media were determined by an EIA method as described by the manufacturer (SIAC; Frederick, Md.). […] The inhibitory effect of the drug was determined using the following equation: % luciferase inhibition=1−(RLUluc [drug]÷RLUluc)×100 where RLUluc [drug] is the relative light unit of luciferase activity in infected cells in the presence of drug and RLUluc is the Relative Light Unit of luciferase activity in infected cells in the absence of drug. […]
A resistance test vector was constructed as described in example 1 from a patient sample designated as 97-302. […] An IC50 was determined for each drug tested. […]

[2] = tested on: HIV reverse transcriptase with mutations at codon 230 (leucine) and 181 (cysteine); test: Phenotypic susceptibility assay; assay type: cell-based; details: mutations at codons 230 and 181
Source text: In another specific embodiment, the invention provides for a method of evaluating the effectiveness of NNRTI antiretroviral therapy of a patient comprising (i) collecting a biological sample from an HIV-infected patient; and (ii) determining whether the biological sample comprises nucleic acid encoding HIV RT having a mutation at codon(s) 230 and/or 181. […] In another specific embodiment, the invention provides for a method of evaluating the effectiveness of NNRTI antiretroviral therapy of a patient comprising (i) collecting a biological sample from an HIV-infected patient; and (ii) determining whether the biological sample comprises nucleic acid encoding HIV RT having a mutation at codon 181. […] In another specific embodiment, the invention provides for a method of evaluating the effectiveness of NNRTI antiretroviral therapy of a patient comprising (i) collecting a biological sample from an HIV-infected patient; and (ii) determining whether the biological sample comprises nucleic acid encoding HIV RT having a mutation at codon 188. […]

Structure (SMILES) | change in susceptibility [1] | change in susceptibility [2]
Cc1ccnc2c1NC(=O)c1cccnc1N2C1CC1 [nevirapine] | significant decrease; also recorded: reduced susceptibility | significant decrease
CC(C)Nc1cccnc1N1CCN(C(=O)c2cc3cc(NS(C)(=O)=O)ccc3[nH]2)CC1 [delavirdine] | modest decrease; also recorded: reduced susceptibility | significant decrease
